What was measured:
[1] = Topical 5% Minoxidil on an acne on a patient's face, two applications; format: in vivo, human
[2] = test system: PSA (prostate specific antigen) protein expression; assay: Western blot of AR regulated PSA protein expression in LNCaP cells; format: cell-based, human; settings: 10^−3˜10^−5 M Minoxidil, 24 h
Protocol: The cells were prepared for electrophoresis on SDS/PAGE gel and then transferred onto nitrocellulose (Minipore, Billerica, USA). AR, PSA and beta-actin proteins were identified using anti-AR (N-20 from Santa Cruz Biotechnology, Santa Cruz, USA), anti-PSA (C-19 from Santa Cruz Biotechnology, Santa Cruz, USA), or […] (MAB1501 from Millipore, Billerica, USA) respectively. Images were shown using alkaline phosphatase substrate color kit (Bio-Rad, Hercules, USA).

[3] = target: T1, glucocorticoid receptor (GR) (Homo sapiens, UniProt P04150); assay: Glucocorticoid receptor transcriptional activity reporter assay in PC-3 cells (control study); format: cell-based
T1 construct: host or cells: PC-3
T1 sequence (P04150 1-777): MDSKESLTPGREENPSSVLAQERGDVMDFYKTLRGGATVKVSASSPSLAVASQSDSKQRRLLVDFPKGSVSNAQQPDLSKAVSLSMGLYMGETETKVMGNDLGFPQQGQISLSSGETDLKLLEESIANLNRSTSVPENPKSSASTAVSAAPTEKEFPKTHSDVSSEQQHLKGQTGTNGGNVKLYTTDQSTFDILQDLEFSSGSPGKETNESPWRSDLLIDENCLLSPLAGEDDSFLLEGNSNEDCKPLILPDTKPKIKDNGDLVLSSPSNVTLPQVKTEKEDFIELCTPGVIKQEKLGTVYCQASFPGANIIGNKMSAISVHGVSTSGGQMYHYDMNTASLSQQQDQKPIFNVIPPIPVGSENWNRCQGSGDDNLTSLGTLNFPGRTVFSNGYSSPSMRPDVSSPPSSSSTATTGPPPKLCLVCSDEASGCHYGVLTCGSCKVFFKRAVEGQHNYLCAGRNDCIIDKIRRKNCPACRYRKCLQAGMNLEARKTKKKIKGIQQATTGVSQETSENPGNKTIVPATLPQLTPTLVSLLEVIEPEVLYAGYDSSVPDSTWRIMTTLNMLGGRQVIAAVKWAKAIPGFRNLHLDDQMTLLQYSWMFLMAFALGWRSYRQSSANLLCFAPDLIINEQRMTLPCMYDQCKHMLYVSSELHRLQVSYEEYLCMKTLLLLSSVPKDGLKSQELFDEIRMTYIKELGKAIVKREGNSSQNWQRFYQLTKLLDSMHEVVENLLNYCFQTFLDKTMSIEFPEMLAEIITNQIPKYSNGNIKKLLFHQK

[4] = Topical Minoxidil on forehead acne in a patient, 7-day course; format: in vivo, human
Protocol: An in vivo evaluation of topical Minoxidil on acne was carried out in a patient. […] In addition, there was less new […] formation on the left (treated) forehead compared to the right (untreated) forehead.

[5] = Double-blind clinical trial of topical Minoxidil versus placebo in patients with acne; format: in vivo, human
Protocol: A double-blind clinical trial is conducted, in which topical Minoxidil and placebo are administered to patients with acne.

For `Nc1cc(N2CCCCC2)nc(N)[n+]1[O-]` [Minoxidil, 6-piperidin-1-ylpyrimidine-2,4-diamine 3-oxide], which “Erythema and swelling around the acne” value ([1]; 5% Minoxidil, topical, after two applications) is on record?
The value was “significant reduction in erythema and swelling around the acne”.

And the “Efficacy in treating acne” value ([1]; 5% topical Minoxidil, 48-hour period)?
The value was “effective in treating acne”.

And the “AR regulated PSA protein expression” value [2]?
The value was “effective in inhibiting AR regulated PSA protein expression in the presence of DHT, in a dose dependent manner”.

What about the GR transcriptional activity ([3]; highest concentration 100 μM) of the same compound?
Its GR transcriptional activity is “did affect GR transcriptional activity”.

And the GR transcriptional activity ([3]; lower concentrations 1-10 μM)?
The GR transcriptional activity was “did not”.

And the “New pimple formation, treated versus untreated forehead” value ([4]; 5% Minoxidil solution, topical, once a day for 7 days)?
The value was “less new pimple formation on the left (treated) forehead”.

And the “Pimples on treated forehead” value ([4]; 5% Minoxidil solution, topical, once a day for 7 days, left forehead treated, right forehead control)?
The value was “disappearance of pimples on the left (treated) forehead”.

And the “Healing time of acne” value ([4]; 5% topical Minoxidil, 7-day course)?
The value was “faster healing time”.

What about the “Symptoms and signs of acne in comparison with the placebo group” value [5] of the same compound?
The value was “statistically significant reduction in the symptoms and signs of acne”.

Reference: US10272086B2 (CHANG GUNG MEMORIAL HOSPITAL, LINKOU, priority 2013, dated 2019)
